The record followed here is patent US10106553B2, “Substituted benzothiophenyl derivatives as GPR40 agonists for the treatment of type II diabetes” (Janssen Pharmaceutica NV, priority 2016, dated 2018).

One may read the EC50 as the concentration giving half of the maximal effect.

The assay deals with human GPR40 (Homo sapiens (Human), UniProt O14842). Description: GPR40 Calcium Flux Assay.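 Also: calcium flux followed with the Fluo-8 fluorescent dye, intensity read each second over 8 min as compounds were added to the cells.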 The format is cell-based. To be noted: transfected HEK293 cells stably expressing human GPR40; Ca2+ mobilization; mean data; read-out: hGPR40 Ca^2+ Assay EC50. For orientation: Calcium assays in cells follow changes in intracellular calcium, usually with a dye or a luminescent sensor.
Sequence of human GPR40 (O14842 whole entry): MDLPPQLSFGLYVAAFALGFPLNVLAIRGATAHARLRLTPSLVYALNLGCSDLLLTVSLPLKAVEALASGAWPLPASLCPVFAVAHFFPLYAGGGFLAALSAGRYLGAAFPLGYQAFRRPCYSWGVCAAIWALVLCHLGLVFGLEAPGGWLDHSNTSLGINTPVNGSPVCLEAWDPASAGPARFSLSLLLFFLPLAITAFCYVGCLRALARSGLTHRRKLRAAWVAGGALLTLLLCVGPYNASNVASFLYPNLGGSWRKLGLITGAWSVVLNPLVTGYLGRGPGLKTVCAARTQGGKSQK
For the molecule `CC#C[C@@H](Cc1nnn[nH]1)c1ccc(OCc2ccc3scc(-c4ccccc4Br)c3c2)cc1` [Cpd 4, (2S)-5-(2-(4-((3-(2-Bromophenyl)benzo[b]thiophen-5-yl)methoxy)phenyl)pent-3-yn-1-yl)-1H-tetrazole], the concentration for a half-maximal effect (EC50) was determined as 20 nM.
In the case of `CC#C[C@@H](Cc1nnn[nH]1)c1ccc(OCc2ccc3scc(-c4cc(Cl)ncc4C)c3c2)cc1` [Cpd 5, (2S)-4-(5-((4-(1-(1H-Tetrazol-5-yl)pent-3-yn-2-yl)phenoxy)methyl)benzo[b]thiophen-3-yl)-2-chloro-5-methylpyridine], the EC50 turned out to be 65 nM.
Under `CC#C[C@@H](Cc1nnn[nH]1)c1ccc(OCc2ccc3scc(-c4ccc(OCC5(O)CCS(=O)(=O)CC5)cc4C)c3c2)cc1` [Cpd 6, (2S)-4-((4-(5-((4-(1-(1H-Tetrazol-5-yl)pent-3-yn-2-yl)phenoxy)methyl)benzo[b]thiophen-3-yl)-3-methylphenoxy)methyl)-4-hydroxytetrahydro-2H-thiopyran 1,1-dioxide] stands 190 nM.
On to `CC#C[C@@H](Cc1nnn[nH]1)c1ccc(OCc2ccc3scc(-c4ccc(OC5CCOCC5)cc4C)c3c2)cc1` [Cpd 9, (2S)-5-(2-(4-((3-(2-Methyl-4-((tetrahydro-2H-pyran-4-yl)oxy)phenyl)benzo[b]thiophen-5-yl)methoxy)phenyl)pent-3-yn-1-yl)-1H-tetrazole], for which the half-maximal effective concentration (EC50) stood at 270 nM.
Under `CC#C[C@@H](Cc1nnn[nH]1)c1ccc(OCc2ccc3scc(-c4ccc(S(C)(=O)=O)cc4C)c3c2)cc1` [Cpd 14, (2S)-5-(2-(4-((3-(2-Methyl-4-(methylsulfonyl)phenyl)benzo[b]thiophen-5-yl)methoxy)phenyl)pent-3-yn-1-yl)-1H-tetrazole] stands 130 nM; under `CC#C[C@@H](Cc1nnn[nH]1)c1ccc(OCc2ccc3scc(-c4ccc(C5CCS(=O)(=O)CC5)cc4C)c3c2)cc1` [Cpd 17, (2S)-4-(4-(5-((4-(1-(1H-Tetrazol-5-yl)pent-3-yn-2-yl)phenoxy)methyl)benzo[b]thiophen-3-yl)-3-methylphenyl)tetrahydro-2H-thiopyran 1,1-dioxide], 97 nM; under `CC#C[C@@H](Cc1nnn[nH]1)c1ccc(OCc2ccc3sc(C)c(-c4ccc(OC5CCS(=O)(=O)CC5)cc4C)c3c2)cc1` [Cpd 18, 4-(4-(5-((4-((2S)-1-(1H-Tetrazol-5-yl)pent-3-yn-2-yl)phenoxy)methyl)-2-methylbenzo[b]thiophen-3-yl)-3-methylphenoxy)tetrahydro-2H-thiopyran 1,1-dioxide], 80 nM.
For `CC#C[C@@H](Cc1nnn[nH]1)c1ccc(OCc2ccc3scc(-c4c(C)cccc4C)c3c2)cc1` [Cpd 20, (2S)-5-(2-(4-((3-(2,6-Dimethylphenyl)benzo[b]thiophen-5-yl)methoxy)phenyl)pent-3-yn-1-yl)-1H-tetrazole], the half-maximal effective concentration (EC50) is 24 nM.
With `CC#C[C@@H](Cc1nnn[nH]1)c1ccc(OCc2ccc3scc(-c4cnc(OCCOC)cc4C)c3c2)cc1` [Cpd 21, (2S)-5-(5-((4-(1-(1H-Tetrazol-5-yl)pent-3-yn-2-yl)phenoxy)methyl)benzo[b]thiophen-3-yl)-2-(2-methoxyethoxy)-4-methylpyridine], the EC50 is 51 nM.
Under `CC#C[C@@H](Cc1nnn[nH]1)c1ccc(OCc2ccc3scc(-c4ncnn4C)c3c2)cc1` [Cpd 23, (2S)-5-(2-(4-((3-(1-Methyl-1H-1,2,4-triazol-5-yl)benzo[b]thiophen-5-yl)methoxy)phenyl)pent-3-yn-1-yl)-1H-tetrazole] stands 1740 nM; under `CC#C[C@@H](Cc1nnn[nH]1)c1ccc(OCc2ccc3scc(-c4nccnc4C)c3c2)cc1` [Cpd 24, (2S)-2-(5-((4-(1-(1H-Tetrazol-5-yl)pent-3-yn-2-yl)phenoxy)methyl)benzo[b]thiophen-3-yl)-3-methylpyrazine], 550 nM; under `CC#C[C@@H](Cc1nnn[nH]1)c1ccc(OCc2ccc3scc(-c4ncc(OCCOC)cc4C)c3c2)cc1` [Cpd 26, (2S)-2-(5-((4-(1-(1H-Tetrazol-5-yl)pent-3-yn-2-yl)phenoxy)methyl)benzo[b]thiophen-3-yl)-5-(2-methoxyethoxy)-3-methylpyridine], 34 nM.
Consider `CC#C[C@@H](Cc1nnn[nH]1)c1ccc(OCc2ccc3scc(-c4cccc5c4OCCO5)c3c2)cc1` [Cpd 27, (2S)-5-(2-(4-((3-(2,3-Dihydrobenzo[b][1,4]dioxin-5-yl)benzo[b]thiophen-5-yl)methoxy)phenyl)pent-3-yn-1-yl)-1H-tetrazole], for which the EC50 was found to be 61 nM.
Under `CC#C[C@@H](Cc1nnn[nH]1)c1ccc(OCc2ccc3scc(-c4cccc5c4CCN5C(=O)CC)c3c2)cc1` [Cpd 28, (2S)-1-(4-(5-((4-(1-(1H-tetrazol-5-yl)pent-3-yn-2-yl)phenoxy)methyl)benzo[b]thiophen-3-yl)indolin-1-yl)propan-1-one] stands 27 nM.
Under `CC#C[C@@H](Cc1nnn[nH]1)c1ccc(OCc2ccc3scc(-c4cc(NS(C)(=O)=O)ccc4C)c3c2)cc1` [Cpd 29, (2S)—N-(3-(5-((4-(1-(1H-tetrazol-5-yl)pent-3-yn-2-yl)phenoxy)methyl)benzo[b]thiophen-3-yl)-4-methylphenyl)methanesulfonamide] stands 420 nM; under `CC#C[C@@H](Cc1nnn[nH]1)c1ccc(OCc2ccc3scc(-c4cccc5c4CCC(C)(C)O5)c3c2)cc1` [Cpd 30, (2S)-5-(2-(4-((3-(2,2-Dimethylchroman-5-yl)benzo[b]thiophen-5-yl)methoxy)phenyl)pent-3-yn-1-yl)-1H-tetrazole], 430 nM.
Under `CC#C[C@@H](Cc1nnn[nH]1)c1ccc(OCc2ccc3scc(-c4ccccc4Cl)c3c2)cc1` [Cpd 32, (2S)-5-(2-(4-((3-(2-Chlorophenyl)benzo[b]thiophen-5-yl)methoxy)phenyl)pent-3-yn-1-yl)-1H-tetrazole] stands 11 nM; under `CC#C[C@@H](Cc1nnn[nH]1)c1ccc(OCc2ccc3scc(-c4cc(OCCOC)cnc4C)c3c2)cc1` [Cpd 33, (2S)-3-(5-((4-(1-(1H-Tetrazol-5-yl)pent-3-yn-2-yl)phenoxy)methyl)benzo[b]thiophen-3-yl)-5-(2-methoxyethoxy)-2-methylpyridine], 8 nM.
As for `CC#C[C@@H](Cc1nnn[nH]1)c1ccc(OCc2ccc3sc(C(F)(F)F)c(C4CC4)c3c2)cc1` [Cpd 37, (2S)-5-(2-(4-((3-Cyclopropyl-2-(trifluoromethyl)benzo[b]thiophen-5-yl)methoxy)phenyl)pent-3-yn-1-yl)-1H-tetrazole], the EC50 was found to be 590 nM.
Under `CC#C[C@@H](Cc1nnn[nH]1)c1ccc(OCc2ccc3scc(-c4ccccc4C)c3c2)nc1` [Cpd 40, (2R)-5-(1-(1H-Tetrazol-5-yl)pent-3-yn-2-yl)-2-((3-(2-methylphenyl)benzo[b]thiophen-5-yl)methoxy)pyridine] stands 58 nM; under `CC#C[C@@H](Cc1nnn[nH]1)c1ccc(OCc2ccc3scc(-c4ccc(OCCOC)cc4C)c3c2)nc1` [Cpd 41, (2R)-5-(1-(1H-Tetrazol-5-yl)pent-3-yn-2-yl)-2-((3-(4-(2-methoxyethoxy)-2-methylphenyl)benzo[b]thiophen-5-yl)methoxy)pyridine], 19 nM; under `CC#C[C@@H](Cc1nnn[nH]1)c1ccc(OCc2ccc3scc(-c4cccc(OCCOC)c4C)c3c2)nc1` [Cpd 42, (2R)-5-(1-(1H-Tetrazol-5-yl)pent-3-yn-2-yl)-2-((3-(3-(2-methoxyethoxy)-2-methylphenyl)benzo[b]thiophen-5-yl)methoxy)pyridine], 120 nM.
For the molecule `CC#C[C@@H](Cc1nnn[nH]1)c1ccc(OCc2ccc3scc(-c4ccc(OCCC(C)(C)O)cc4C)c3c2)nc1` [Cpd 43, (2R)-4-(4-(5-(((5-(1-(1H-Tetrazol-5-yl)pent-3-yn-2-yl)pyridin-2-yl)oxy)methyl)-benzo[b]thiophen-3-yl)-3-methylphenoxy)-2-methylbutan-2-ol], the EC50 is 130 nM.
Under `CC#C[C@@H](Cc1nnn[nH]1)c1ccc(OCc2cnc3scc(-c4ccccc4C)c3c2)cc1` [Cpd 49, (2S)-5-((4-(1-(1H-Tetrazol-5-yl)pent-3-yn-2-yl)phenoxy)methyl)-3-(2-methylphenyl)thieno[2,3-b]pyridine] stands 10 nM; under `CC#C[C@@H](Cc1nnn[nH]1)c1ccc(OCc2cnc3scc(-c4ccc(OC)cc4C)c3c2)cc1` [Cpd 50, (2S)-5-((4-(1-(1H-Tetrazol-5-yl)pent-3-yn-2-yl)phenoxy)methyl)-3-(4-methoxy-2-methylphenyl)thieno[2,3-b]pyridine], 52 nM.
Regarding `CC#C[C@@H](Cc1nnn[nH]1)c1ccc(OCc2cc3c(-c4ccccc4C)csc3cn2)cc1` [Cpd 51, (2S)-5-((4-(1-(1H-Tetrazol-5-yl)pent-3-yn-2-yl)phenoxy)methyl)-3-(2-methylphenyl)thieno[2,3-c]pyridine], the EC50 came to 3 nM.
For the molecule `CC#C[C@@H](Cc1nnn[nH]1)c1ccc(OCc2cc3c(-c4ccc(OC)cc4C)csc3cn2)cc1` [Cpd 52, (2S)-5-((4-(1-(1H-Tetrazol-5-yl)pent-3-yn-2-yl)phenoxy)methyl)-3-(4-methoxy-2-methylphenyl)thieno[2,3-c]pyridine], the 50% effective concentration (EC50) was 1 nM.
Under `CC#C[C@@H](Cc1nnn[nH]1)c1ccc(OCc2ccc3scc(-c4ccccc4C)c3n2)cc1` [Cpd 53, (2S)-5-((4-(1-(1H-Tetrazol-5-yl)pent-3-yn-2-yl)phenoxy)methyl)-3-(2-methylphenyl)thieno[3,2-b]pyridine] stands 170 nM; under `CC#C[C@@H](Cc1nnn[nH]1)c1ccc(OCc2ccc3scc(-c4ccc(OC)cc4C)c3n2)cc1` [Cpd 54, (2S)-5-((4-(1-(1H-Tetrazol-5-yl)pent-3-yn-2-yl)phenoxy)methyl)-3-(4-methoxy-2-methylphenyl)thieno[3,2-b]pyridine], 180 nM.
Under `CC#C[C@@H](Cc1nnn[nH]1)c1ccc(OCc2ccc3scc(C4CCCC4)c3c2)cc1` [Cpd 56, (2S)-5-(2-(4-((3-Cyclopentylbenzo[b]thiophen-5-yl)methoxy)phenyl)pent-3-yn-1-yl)-1H-tetrazole] stands 54 nM; under `CC#C[C@@H](Cc1nnn[nH]1)c1ccc(OCc2ccc3scc(C(C)C)c3c2)cc1` [Cpd 58, (2S)-5-(2-(4-((3-Isopropylbenzo[b]thiophen-5-yl)methoxy)phenyl)pent-3-yn-1-yl)-1H-tetrazole], 100 nM.
